Measurements published in article PMC8453936, “Development and in vitro Profiling of Dual FXR/LTA4H Modulators” (Chemmedchem, 2021).
Values joined by “and” are separate entries in the source; they are usually repeats but may differ in a detail not shown here. Equal entries are not always repeated. Where two headings read alike, the source gives them in different places.

Assays:
[1] = target: T1, recombinant human LTA4H (Homo sapiens, UniProt P09960); settings: for LTA4H max. inhib.: LTA4H inhibition at the highest tested concentration (up to 100 μM), mean±S.E.M., n=3
T1 sequence (P09960 1-611): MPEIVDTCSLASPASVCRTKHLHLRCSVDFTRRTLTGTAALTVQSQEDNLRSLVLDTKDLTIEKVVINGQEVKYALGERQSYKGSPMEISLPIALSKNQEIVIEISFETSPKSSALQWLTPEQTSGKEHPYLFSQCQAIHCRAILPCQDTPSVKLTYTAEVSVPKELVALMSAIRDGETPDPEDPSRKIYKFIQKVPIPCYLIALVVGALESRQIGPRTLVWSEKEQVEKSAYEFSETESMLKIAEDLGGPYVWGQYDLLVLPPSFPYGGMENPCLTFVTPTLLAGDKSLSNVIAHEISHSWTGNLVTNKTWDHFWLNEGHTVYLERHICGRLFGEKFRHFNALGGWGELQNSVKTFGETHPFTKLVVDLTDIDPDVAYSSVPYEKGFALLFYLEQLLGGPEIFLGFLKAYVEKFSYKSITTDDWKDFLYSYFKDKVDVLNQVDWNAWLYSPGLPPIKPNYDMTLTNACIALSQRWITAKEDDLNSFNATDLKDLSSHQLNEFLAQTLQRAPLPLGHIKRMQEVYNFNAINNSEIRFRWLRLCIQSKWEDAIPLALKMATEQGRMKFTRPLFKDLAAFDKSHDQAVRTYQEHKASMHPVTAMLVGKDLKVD
Description: FXR modulation by 3–20 was characterized in a cellular (HeLa, transiently transfected) full‐length FXR reporter gene assay employing the human FXR response element from the promoter region of bile salt export protein (BSEP) to govern firefly luciferase expression as reporter gene.[26, 27] FXR and its natural heterodimer partner retinoid X receptor (RXR) were constitutively over‐expressed and a constitutively expressed renilla luciferase was present as internal control for transfection efficiency and cellular health.
LTA4H assay. […] The assay was performed in black polystyrol 96‐well plates in a final volume of 100 μL. Test compound solution in DMSO (1 μL) or DMSO alone as control were incubated with 89 μl protein mixture (containing LTA4H, buffer and Triton‐X‐100). After 30 min, 10 μl of substrate mixture (containing L‐arginin‐7‐amido‐4‐methylcumarine and DMSO in buffer) were added. […] A blank measurement containing no protein was performed and treated as 0 % conversion control. All samples were measured in triplicates and each experiment was conducted in three independent repeats.

[2] = target: T2, full-length human FXR (Homo sapiens, UniProt Q96RI1); settings: mean±S.E.M., n≥3, previously reported, cited from earlier work; for FXR efficacy (maximum FXR activation relative to 3 μM GW4064): 3 μM GW4064 = 100 % activation; for EC50(FXR) / EC50: full-length FXR reporter gene assay, BSEP promoter, HeLa
T2 construct: coding for the full‐length human nuclear receptors FXR and RXRα; expressed in transfected cells; host or cells: HeLa
T2 sequence (Q96RI1 1-486): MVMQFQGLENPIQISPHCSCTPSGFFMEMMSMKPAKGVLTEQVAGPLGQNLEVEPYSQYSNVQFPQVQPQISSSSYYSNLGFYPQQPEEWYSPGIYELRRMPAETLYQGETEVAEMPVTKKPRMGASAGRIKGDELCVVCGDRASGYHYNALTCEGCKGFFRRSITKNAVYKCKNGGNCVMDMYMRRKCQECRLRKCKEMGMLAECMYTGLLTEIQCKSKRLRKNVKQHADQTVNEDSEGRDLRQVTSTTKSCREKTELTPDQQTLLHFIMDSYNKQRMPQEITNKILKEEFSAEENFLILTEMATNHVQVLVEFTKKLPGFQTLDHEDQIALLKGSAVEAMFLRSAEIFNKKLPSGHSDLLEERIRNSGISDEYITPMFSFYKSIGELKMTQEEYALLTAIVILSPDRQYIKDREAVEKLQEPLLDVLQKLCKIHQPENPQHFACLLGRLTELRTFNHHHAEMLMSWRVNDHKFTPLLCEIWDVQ
T2 sequence (P19793 1-462 partner): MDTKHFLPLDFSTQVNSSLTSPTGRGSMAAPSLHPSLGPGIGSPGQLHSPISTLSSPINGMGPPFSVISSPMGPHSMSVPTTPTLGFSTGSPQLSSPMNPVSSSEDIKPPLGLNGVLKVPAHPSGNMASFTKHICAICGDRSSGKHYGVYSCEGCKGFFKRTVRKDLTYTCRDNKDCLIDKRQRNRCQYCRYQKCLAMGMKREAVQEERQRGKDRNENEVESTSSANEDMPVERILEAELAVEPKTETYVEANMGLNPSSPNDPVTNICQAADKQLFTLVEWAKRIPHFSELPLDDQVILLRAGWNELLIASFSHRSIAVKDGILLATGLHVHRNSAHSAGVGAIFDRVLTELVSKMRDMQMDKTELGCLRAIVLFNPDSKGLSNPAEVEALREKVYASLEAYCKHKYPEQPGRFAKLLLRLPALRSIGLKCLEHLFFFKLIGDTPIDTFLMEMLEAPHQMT

[3] = target: T2, full-length human FXR; test: Full-length FXR:RXR reporter gene assay (BSEP promoter, HeLa, transiently transfected); type: cell-based; settings: mean±S.E.M., n≥3; for FXR efficacy (maximum FXR activation relative to 3 μM GW4064): 3 μM GW4064 = 100 % activation; for EC50: full-length FXR reporter gene assay, BSEP promoter, HeLa
Protocol: Full‐length FXR:RXR reporter gene assay. HeLa cells were grown in DMEM high glucose supplemented with 10 % FCS, sodium pyruvate (1 mM), penicillin (100 U/mL) and streptomycin (100 μg/mL) at 37 °C and 5 % CO2 and seeded in 96‐well plates 24 h before transfection with a density of 8000 cells per well. 3.5 h before transfection, medium was changed to DMEM high glucose, supplemented with sodium pyruvate (1 mM), penicillin (100 U/mL), streptomycin (100 μg/mL) and 0.5 % charcoal‐stripped FCS. Cells were then transiently transfected with using the calcium phosphate transfection method with pGL3basic‐BSEP[26, 27] (containing a shortened construct of the promotor of the bile salt export protein (BSEP) cloned into the SacI/NheI cleavage site in front of the luciferase gene), pcDNA3‐hFXR[26] and pSG5‐hRXR[38] coding for the full‐length human nuclear receptors FXR and RXRα, and pRL‐SV40 (Promega) for normalization of transfection efficiency and cell growth. 16 h after transfection, medium was changed to DMEM high glucose, supplemented with sodium pyruvate (1 mM), penicillin (100 U/mL), streptomycin (100 μg/mL) and 0.5 % charcoal‐stripped FCS. 24 h after transfection, medium was changed to DMEM without phenol red, supplemented with sodium pyruvate (1 mM), penicillin (100 U/mL), streptomycin (100 μg/mL), L‐glutamine (2 mM) and 0.5 % charcoal‐stripped FCS, now additionally containing 0.1 % DMSO and the respective test compound or 0.1 % DMSO alone as untreated control. Each sample was tested in triplicate wells and each experiment was repeated independently at least three times. Following 24 h incubation with the test compounds, cells were assayed for luciferase activity using Dual‐Glo Luciferase Assay System (Promega) according to the manufacturer's protocol. Luminescence was measured with a Tecan Spark M luminometer (Tecan). Normalization of transfection efficiency and cell growth was done by division of firefly luciferase data by Renilla luciferase data multiplied by 1000 resulting in relative light units (RLU). Fold activation was obtained by dividing the mean RLU of the tested compound at a respective concentration by the mean RLU of untreated control. EC50 and standard error of the mean values were calculated with the mean fold activation values of at least three independent experiments with SigmaPlot 10.0 (Systat Software GmbH, Erkrath, Germany) using a four‐parameter logistic regression.

SMILES	IC50 [1] [nM]	LTA4H max. inhib. [1] [%]	FXR efficacy (maximum FXR activation relative to 3 μM GW4064) [2]	EC50(FXR) [2]	EC50 [2] [nM]	FXR efficacy (maximum FXR activation relative to 3 μM GW4064) [3]	EC50 [3] [nM]
O=C(O)c1cccc(NC(=O)c2ccc(OCCCCc3ccccc3)cc2)c1 [compound 3]	540 ± 70	97.2±0.4	34% and 34±1%	–	–	–	–
O=C(Nc1cccc2c(=O)cc(-c3nnn[nH]3)oc12)c1ccc(OCCCCc2ccccc2)cc1 [compound 4, pranlukast, reference compound]	1600 ± 200	82.6±0.8	–	–	–	–	–
O=C(Nc1cccc2c(=O)cc(C(=O)O)oc12)c1ccc(OCCCCc2ccccc2)cc1 [compound 5]	15000 ± 2000	80±5	–	inactive (50 μM)	–	–	–
COc1c(NC(=O)c2ccc(OCCCCc3ccccc3)cc2)cccc1C(=O)O [compound 6]	5500 ± 500	85±2	26±1%	–	190 ± 20	–	–
O=C(O)c1ccc(NC(=O)c2ccc(OCCCCc3ccccc3)cc2)cc1 [compound 7]	370 ± 20	97.8±0.1	29±1%	–	14 ± 1	–	–
O=C(O)c1cccc(NC(=O)c2ccc(OCCc3ccccc3)cc2)c1 [compound 9]	610 ± 60	96.0±0.2	56±1%	–	150 ± 20	–	–
O=C(O)c1cccc(NC(=O)c2ccc(OCc3ccccc3)cc2)c1 [compound 10]	1100 ± 100	94.9±0.2	20±1%	–	–	–	–
O=C(O)c1cccc(NC(=O)c2ccc(Oc3ccccc3)cc2)c1 [compound 11]	550 ± 60	98.2±0.1	35±1%	–	1 ± 0.3	–	–
O=C(O)c1cccc(NC(=O)c2ccc(Oc3cccc(-c4ccccc4)c3)cc2)c1 [compound 12]	5200 ± 600	81.1±0.6	–	–	–	14% and 14±1%	300 ± 100
O=C(Nc1cccc(C(=O)O)n1)c1ccc(Oc2ccccc2)cc1 [compound 13]	280 ± 20	90.8±0.3	–	antagonist	–	–	–
O=C(Nc1ccnc(C(=O)O)c1)c1ccc(Oc2ccccc2)cc1 [compound 14]	950 ± 10	97.9±0.1	–	–	–	–	–
O=C(O)c1ccnc(NC(=O)c2ccc(Oc3ccccc3)cc2)c1 [compound 15]	2100 ± 100	89.6±0.6	56±1%	–	70 ± 20	–	–
O=C(O)c1ccc(NC(=O)c2ccc(OCCCc3ccccc3)cc2)cc1 [compound 16]	200 ± 20	98.8±0.1	–	–	–	–	–
O=C(O)Cc1cccc(NC(=O)c2ccc(OCCCc3ccccc3)cc2)c1 [compound 17]	1900 ± 100	97.0±0.2	–	–	–	–	> 30000
CS(=O)(=O)Nc1cccc(NC(=O)c2ccc(OCCCc3ccccc3)cc2)c1 [compound 18]	130 ± 10	89.5±0.5	–	–	–	35±2%	1600 ± 400
O=C(Nc1nc(C(=O)O)co1)c1ccc(OCCCc2ccccc2)cc1 [compound 20]	–	99.7±0.1	–	–	–	30±1%	11000 ± 2000
